Read-outs that look alike come from different tables or passages of the source.
Legend:
mice [1] = assay: Spontaneous locomotor activity of mice (Example 3); type: in vivo
Description: The effect of vanillin on spontaneous locomotor activity of mice was examined. Three groups of male mice, with four mice per group, were assigned to receive a dosage of vanillin of 0, 200 or 300 mg/kg, respectively. After i.p. injection of vanillin or a control solution (0.9% NaCl in water), an injected mouse was placed by itself in a cage, the cage enclosed in a cabinet to exclude external stimuli, and locomotor activity of the mouse was monitored. Three types of movements of the mouse within the cage were measured, based upon interruptions of 16 beams of infrared light, spaced one inch (2.54 cm) apart, which traverse the cage. Interruptions of the infrared beams are detected by sensors and are recorded as "counts" of activity using a system obtained from Omnitech Electronics, Columbus Ohio.
Three types of activity measures were automatically recorded by the system: (1) all interruptions of all beams were recorded as "Total activity counts"; (2) interruptions of two consecutive beams were recorded as "Ambulatory activity counts"; and (3) interruptions of four consecutive beams were recorded as "Gross movements".
The effects of doses of vanillin (200 and 300 mg/kg i.p.) was assessed and compared with locomotor activity recorded for concomitantly tested mice given only vehicle (0.9% NaCl in water). Measurement of locomotor activity was made during 10 minute intervals for 60 minutes after treatment. Due to the relatively short duration of vanillin encountered, the higher dose group also had measurements taken at three minute intervals for 24 minutes and at one minute intervals for nine minutes after treatment.
Means and standard errors of numbers of counts were determined for each experimental group.

rats = conditions: cited from earlier work
man = conditions: in man; cited from earlier work
mice [2] = assay: Inverted screen test in mice (Example 4); type: in vivo; conditions: for ED50: Mus musculus, ip
Description: An inverted screen test was performed on mice to investigate the effect of vanillin and vanillin analogs on muscular function. After i.p. injection of vanillin or vehicle, each mouse was placed on a wire screen (12.8 cm×12.8 cm with a 6 mm mesh size) and the screen was inverted. A positive effect was found if the drug caused the mouse to fall from the screen within 60 seconds. A negative effect was found if the mouse had the ability to climb from the underside of the screen to the top side of the screen within the 60 second time period. Hanging from the underside of the screen without falling but without climbing to the topside at 60 seconds is recorded as a one-half positive effect per the convention of Coughenour, L. L.; Mclean, J. R.; Parker, R. B., "A New Device for the Rapid Measurement of Impaired Motor Function in Mice," Pharmacol. Biochem. Behav., 6: 351-353; 1977. The test was performed at 2, 5, 10, and 30 minutes following administration of vanillin or vehicle. At each of those times, an ED-50 (and 95% confidence limits) was determined for vanillin. Six mice were used in each experimental group.
Several analogs of vanillin were also examined in this test. The chemical structures and chemical names for these compounds are described hereinabove.
The testing of these compounds was limited both by supply of compound and by solubility. Testing was performed at 2, 5, 10, 20 minutes after administration of drug or vehicle. The vehicles used to solubilize the analogs were as follows: 10% ethanol for TBJ1, TBJ2, and TBJ3; 3% ammonium hydroxide solution in saline for FSA (pH=9); 6.7% ammonium hydroxide in saline for TB17 (pH=9.3); and 20% ethanol, 1% ammonium hydroxide solution in saline for TB34 (pH=10.0). ED-50s of compounds (and 95% confidence limits) were calculated in cases where the data permitted the calculation.

mice [3] = assay: Electroshock-induced seizures in mice (Example 5); type: in vivo; conditions: vanillin 300 mg/kg i.p.
Description: Mice were treated with vanillin (100, 200, or 300 mg/kg) or saline (0.9% NaCl) by i.p. injection. The treatment was followed either by injection of pentylenetetrazol ("Metrazol"), 80 or 90 mg/kg by i.p. injection (given 5 minutes after vanillin) or by exposure to a 1-second pulse of shock through electrodes clamped to the ears (5 minutes after vanillin). The end-points for both tests were the occurrence of a tonic (extensor) convulsion and/or death. Six mice were used per group for the Metrazol-induced seizure test, and five mice were used per group for the electroshock-induced seizure test.

`COc1cc(C=O)ccc1O` [vanillin, 4-hydroxy-3-methoxybenzaldehyde] gave a Gross movements (mice [1]; 200 mg/kg i.p., 0-10 min (control 83 ± 16)) of 86 ± 16 counts, an Ambulatory activity counts (mice [1]; 200 mg/kg i.p., 0-10 min (control 739 ± 108)) of 545 ± 62 counts and a Total activity counts (mice [1]; 200 mg/kg i.p., 0-10 min (control 1525 ± 281)) of 897 ± 201 counts. For the same molecule, the Gross movements (mice [1]; 200 mg/kg i.p., 10-20 min (control 41 ± 8)) was 43 ± 8 counts, the Ambulatory activity counts (mice [1]; 200 mg/kg i.p., 10-20 min (control 461 ± 68)) was 291 ± 37 counts and the Gross movements (mice [1]; 200 mg/kg i.p., 20-30 min (control 34 ± 13)) was 18 ± 13 counts. The Ambulatory activity counts (mice [1]; 200 mg/kg i.p., 20-30 min (control 307 ± 76)) was 130 ± 85 counts, the Total activity counts (mice [1]; 200 mg/kg i.p., 20-30 min (control 582 ± 126)) was 481 ± 257 counts and the Gross movements (mice [1]; 200 mg/kg i.p., 30-40 min (control 31 ± 11)) was 14 ± 11 counts. It also gave an Ambulatory activity counts (mice [1]; 200 mg/kg i.p., 30-40 min (control 599 ± 224)) of 409 ± 276 counts, a Total activity counts (mice [1]; 200 mg/kg i.p., 30-40 min (control 635 ± 204)) of 410 ± 275 counts and a Gross movements (mice [1]; 200 mg/kg i.p., 40-50 min (control 19 ± 14)) of 32 ± 13 counts. For the same molecule, the Ambulatory activity counts (mice [1]; 200 mg/kg i.p., 40-50 min (control 171 ± 103)) was 243 ± 67 counts, the Total activity counts (mice [1]; 200 mg/kg i.p., 40-50 min (control 268 ± 167)) was 413 ± 115 counts and the Gross movements (mice [1]; 200 mg/kg i.p., 50-60 min (control 23 ± 8)) was 31 ± 8 counts. It also gave a Gross movements (mice [1]; 300 mg/kg i.p., 0-10 min (control 83 ± 16)) of 75 ± 23 counts, an Ambulatory activity counts (mice [1]; 300 mg/kg i.p., 0-10 min (control 739 ± 108)) of 479 ± 150 counts and a Gross movements (mice [1]; 300 mg/kg i.p., 10-20 min (control 41 ± 8)) of 57 ± 19 counts. It also gave an Ambulatory activity counts (mice [1]; 300 mg/kg i.p., 10-20 min (control 461 ± 68)) of 298 ± 117 counts, a Total activity counts (mice [1]; 300 mg/kg i.p., 10-20 min (control 832 ± 105)) of 449 ± 155 counts and a Gross movements (mice [1]; 300 mg/kg i.p., 20-30 min (control 34 ± 13)) of 37 ± 16 counts. It also gave an Ambulatory activity counts (mice [1]; 300 mg/kg i.p., 20-30 min (control 307 ± 76)) of 245 ± 100 counts, a Total activity counts (mice [1]; 300 mg/kg i.p., 20-30 min (control 582 ± 126)) of 404 ± 176 counts and a Gross movements (mice [1]; 300 mg/kg i.p., 30-40 min (control 31 ± 11)) of 38 ± 10 counts. The Ambulatory activity counts (mice [1]; 300 mg/kg i.p., 30-40 min (control 599 ± 224)) was 270 ± 74 counts, the Total activity counts (mice [1]; 300 mg/kg i.p., 30-40 min (control 635 ± 204)) was 441 ± 121 counts and the Gross movements (mice [1]; 300 mg/kg i.p., 40-50 min (control 19 ± 14)) was 21 ± 8 counts. It also gave an Ambulatory activity counts (mice [1]; 300 mg/kg i.p., 40-50 min (control 171 ± 103)) of 244 ± 66 counts, a Total activity counts (mice [1]; 300 mg/kg i.p., 40-50 min (control 268 ± 167)) of 365 ± 108 counts and a Gross movements (mice [1]; 300 mg/kg i.p., 50-60 min (control 23 ± 8)) of 12 ± 7 counts. For the same molecule, the “effect on smaller types of motor movements” value (mice [1]; 200 and 300 mg/kg i.p.) was “suppressed”, the “effect on gross movements, such as walking” value (mice [1]; any time, doses up to 300 mg/kg) was “not significantly affected” and the “persistence of some effect on locomotor activity” value (mice [1]; i.p.) was at least 60 min. The “oral LD50” value (rats) was 1580 mg/kg, the metabolism and excretion (man) was “converted to vanillic acid in the liver and is excreted in the urine” and the ED50 (mice [2]; 2 min, 2 min post-treatment, read-out: ED-50 (95% confidence limits)) was 112 mg/kg. For the same molecule, the ED50 (mice [2]; 5 min, 5 min post-treatment, read-out: ED-50 (95% confidence limits)) was 104 mg/kg, the ED50 (mice [2]; 10 min, 10 min post-treatment, read-out: ED-50 (95% confidence limits)) was 112 mg/kg and the ED50 (mice [2]; 10 min, first 10 minutes after injection, read-out: ED-50) was about 100 mg/kg. The ED50 (mice [2]; 0.5 h, 30 min post-treatment, read-out: ED-50 (95% confidence limits)) was 748 mg/kg, the “change of potency with time” value (mice [2]; between 10 and 30 minutes after injection) was “declined precipitously” and the Death (mice [3]; 1-second electroshock (vehicle 1/5)) was 0/5. The “Tonic Convulsion” value (mice [3]; 1-second electroshock (vehicle 5/5)) was 4/5.

From patent US5668182A, “Method of calming or sedating an animal with a hydroxy benzaldehyde compound” (priority 1996, dated 1997)
